Read-outs that look alike come from different tables or passages of the source.
Legend:
human FGF-R1 = human FGF-R1 (Homo sapiens, UniProt P11362, C488A/C584S/L457V); test: FGF-R spectrophotometric assay; type: biochemical; conditions: Table 1; compound concentration 1 µM; read-out: FGF-P* (% inhibition)
Procedure: The spectrophotometric assay was carried out as described above for VEGF-R2, except for the following changes in concentration: FGF-R = 50 nM, ATP = 2 mM, and poly(E4Y1) =15 mM.

LCK tyrosine kinase = LCK tyrosine kinase (Homo sapiens, UniProt P06239, C224D/P223M); test: LCK spectrophotometric assay; type: biochemical; conditions: Table 1; compound concentration 1 µM; read-out: Lck-P* (% inhibition)
Chain of LCK tyrosine kinase (P06239 223-509 P223M/C224D): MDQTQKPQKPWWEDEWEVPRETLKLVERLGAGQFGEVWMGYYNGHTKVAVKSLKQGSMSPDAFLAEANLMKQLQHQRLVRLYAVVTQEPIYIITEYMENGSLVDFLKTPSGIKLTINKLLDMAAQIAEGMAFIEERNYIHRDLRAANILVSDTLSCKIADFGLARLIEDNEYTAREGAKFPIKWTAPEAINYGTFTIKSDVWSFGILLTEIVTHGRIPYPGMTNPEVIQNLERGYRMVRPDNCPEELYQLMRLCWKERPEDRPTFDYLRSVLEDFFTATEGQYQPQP
Procedure: The spectrophotometric assay was carried out as described above for VEGF-R2, except for the following changes in concentration: LCK = 60 nM, MgCl2 = 0 mM, poly(E4Y1) = 20 mM.

[1] = test system: lung cancer cells (line MV522); test: Cancer cell proliferation (MV522) assay; type: cell-based; conditions: MV522; Table 1; read-out: MV522 IC50
Procedure, shortened: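 MTT reduction read-out was taken 72 h after addition of test agents, with no prior serum starvation. Cells were plated beforehand at two thousand per well in RPMI1640 containing 10% FBS and 2 mM glutamine and allowed one day to adhere.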

[2] = target: T1, unphosphorylated VEGF-R2Δ50 (Homo sapiens, UniProt P35968, DEL940-989/E990V); test: biochemical
T1 sequence (P35968 with tags, fused parts or gaps DEL940-989/E990V limits assumed): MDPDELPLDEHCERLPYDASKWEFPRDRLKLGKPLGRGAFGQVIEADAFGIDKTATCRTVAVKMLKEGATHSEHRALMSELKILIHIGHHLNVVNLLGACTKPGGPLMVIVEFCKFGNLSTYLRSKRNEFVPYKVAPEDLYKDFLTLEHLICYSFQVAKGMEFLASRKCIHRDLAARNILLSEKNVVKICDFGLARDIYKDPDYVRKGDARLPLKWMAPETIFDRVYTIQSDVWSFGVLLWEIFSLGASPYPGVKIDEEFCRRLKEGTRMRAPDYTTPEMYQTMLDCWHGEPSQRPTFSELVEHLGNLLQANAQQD

[3] = target: phosphorylated VEGF-R2Δ50 (Homo sapiens, UniProt P35968, DEL940-989/E990V); test: biochemical; conditions: for inhibition at 1 µM: read-out: FLVK-P* (% inhibition); for inhibition at 0.05 µM: read-out: FLVK -P** (% inhibition)
Chain of phosphorylated VEGF-R2Δ50 (P35968 with tags, fused parts or gaps DEL940-989/E990V limits assumed): as above

human CHK1 (FL-CHK1) = target: T2, human CHK1 (FL-CHK1) (Homo sapiens, UniProt O14757); test: CHK1 coupled spectrophotometric assay; type: biochemical; conditions: read-out: CHK1* (% inhibition)
T2 construct: C-terminally His-tagged full-length human CHK1 (FL-CHK1) was expressed using the baculovirus/insect cell system; made in house; host or cells: baculovirus/insect cell system
T2 sequence (O14757 1-476): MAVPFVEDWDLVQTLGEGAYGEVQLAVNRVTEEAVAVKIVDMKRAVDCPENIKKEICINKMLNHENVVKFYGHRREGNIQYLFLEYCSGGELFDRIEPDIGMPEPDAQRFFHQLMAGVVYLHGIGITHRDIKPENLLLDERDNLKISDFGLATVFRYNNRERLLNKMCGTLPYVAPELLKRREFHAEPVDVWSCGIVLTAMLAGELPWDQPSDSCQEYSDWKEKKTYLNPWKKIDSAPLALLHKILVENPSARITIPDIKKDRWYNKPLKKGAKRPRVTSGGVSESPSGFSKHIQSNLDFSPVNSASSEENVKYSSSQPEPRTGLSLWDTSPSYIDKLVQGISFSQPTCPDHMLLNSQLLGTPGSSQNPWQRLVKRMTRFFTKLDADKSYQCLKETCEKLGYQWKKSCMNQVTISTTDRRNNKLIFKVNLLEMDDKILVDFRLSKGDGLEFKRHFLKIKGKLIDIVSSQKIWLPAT
Procedure, shortened: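 His-tagged full-length human CHK1 from baculovirus/insect cells, 10 nM, phosphorylating Syntide-2. ADP formation coupled via PK/LDH with PEP to NADH oxidation, followed as absorbance decrease at 340 nm. Ki from initial rates at varying compound concentrations.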

[4] = target: T1, unphosphorylated VEGF-R2Δ50; conditions: Table 1; compound concentration 50 nM
CDK1 = CDK1 (Homo sapiens, UniProt P06493); test: CDK1 assay (Table 3); type: biochemical; conditions: compound concentration 1 µM, NI = no significant inhibition
Chain of CDK1 (P06493 whole entry, species assumed, the tested form may be a part): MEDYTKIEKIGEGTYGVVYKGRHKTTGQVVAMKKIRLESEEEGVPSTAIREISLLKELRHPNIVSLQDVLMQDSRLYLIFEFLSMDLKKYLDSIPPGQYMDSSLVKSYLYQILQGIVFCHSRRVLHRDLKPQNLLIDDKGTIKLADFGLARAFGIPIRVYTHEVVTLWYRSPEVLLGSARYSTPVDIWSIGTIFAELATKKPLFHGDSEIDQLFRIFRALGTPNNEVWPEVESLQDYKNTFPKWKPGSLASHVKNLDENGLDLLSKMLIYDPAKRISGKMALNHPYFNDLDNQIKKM
Chain of CDK1 (P14635 whole entry partner, species assumed, the tested form may be a part): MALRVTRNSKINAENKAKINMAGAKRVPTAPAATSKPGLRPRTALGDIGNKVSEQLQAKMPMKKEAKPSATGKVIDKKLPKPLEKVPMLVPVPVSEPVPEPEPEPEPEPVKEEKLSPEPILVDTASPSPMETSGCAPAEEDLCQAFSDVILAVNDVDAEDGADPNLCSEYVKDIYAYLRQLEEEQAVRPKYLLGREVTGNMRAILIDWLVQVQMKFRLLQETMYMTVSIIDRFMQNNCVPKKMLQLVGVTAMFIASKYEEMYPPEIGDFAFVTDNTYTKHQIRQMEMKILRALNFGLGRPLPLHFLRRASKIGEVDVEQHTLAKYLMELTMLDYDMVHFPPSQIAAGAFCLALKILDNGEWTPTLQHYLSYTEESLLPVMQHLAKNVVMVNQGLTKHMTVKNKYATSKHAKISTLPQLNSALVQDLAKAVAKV

CDK2/Cyclin A complex = CDK2/Cyclin A complex (Homo sapiens, UniProt P24941); test: CDK2/Cyclin A assay ([32P]ATP incorporation into Rb fragment); type: biochemical; conditions: read-out: CDK2 * (% inhibition)
CDK4/Cyclin D3 complex = CDK4/Cyclin D3 complex (Homo sapiens, UniProt P11802); test: biochemical; conditions: read-out: CDK4 * (% inhibition)
Chain of CDK4/Cyclin D3 complex (P11802 whole entry): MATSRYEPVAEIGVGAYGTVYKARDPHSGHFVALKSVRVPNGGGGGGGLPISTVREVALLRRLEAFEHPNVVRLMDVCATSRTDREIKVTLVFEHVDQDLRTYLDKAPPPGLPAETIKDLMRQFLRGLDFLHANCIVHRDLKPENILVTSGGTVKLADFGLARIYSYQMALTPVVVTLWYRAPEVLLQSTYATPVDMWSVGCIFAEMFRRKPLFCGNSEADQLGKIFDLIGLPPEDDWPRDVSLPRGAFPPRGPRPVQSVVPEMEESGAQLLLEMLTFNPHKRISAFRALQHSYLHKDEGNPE
Chain of CDK4/Cyclin D3 complex (P30281 whole entry partner): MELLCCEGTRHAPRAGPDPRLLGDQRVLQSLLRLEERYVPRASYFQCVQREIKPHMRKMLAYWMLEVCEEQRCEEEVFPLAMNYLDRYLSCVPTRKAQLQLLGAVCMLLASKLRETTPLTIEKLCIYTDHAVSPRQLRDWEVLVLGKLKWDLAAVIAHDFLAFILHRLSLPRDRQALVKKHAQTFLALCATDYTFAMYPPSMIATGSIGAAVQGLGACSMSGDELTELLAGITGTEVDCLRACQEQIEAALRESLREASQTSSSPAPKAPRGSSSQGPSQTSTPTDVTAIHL

human FAK (FAKcd409) = target: T3, human FAK (FAKcd409) (Homo sapiens, UniProt Q05397, P410T); test: FAK fluorescence polarization assay; type: biochemical; conditions: read-out: % Inhibition @ 1 µM FAK
T3 construct: comprises residues methionine 409 to glutamate 689; made in house; host or cells: baculovirus vector expression system (insect cells)
T3 sequence (Q05397 409-689 P410T): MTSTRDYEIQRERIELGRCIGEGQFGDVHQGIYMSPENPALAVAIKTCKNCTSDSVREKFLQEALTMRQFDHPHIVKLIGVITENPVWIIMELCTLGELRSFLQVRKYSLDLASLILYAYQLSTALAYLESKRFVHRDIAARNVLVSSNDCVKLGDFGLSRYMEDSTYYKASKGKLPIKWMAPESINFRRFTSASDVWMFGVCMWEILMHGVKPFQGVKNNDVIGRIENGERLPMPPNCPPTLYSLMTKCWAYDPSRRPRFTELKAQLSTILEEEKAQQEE
Procedure: FAK Construct for Assay. The catalytic domain of human FAK (FAKcd409) was expressed using the baculovirus vector expression system. […] The protein was purified using classical chromatography techniques.
FAK HTS utilized the fluorescence polarization assay provided by LJL Biosystems. The kinase reaction contained: 100mM Hepes pH 7.5, 10mM MgCl2, 1mM DTT, 1mM ATP, and 1mg/ml poly Glu-Tyr (4: 1). The reaction is initiated by the addition of 5nM FAKcd409. The reaction is terminated by the addition of EDTA followed by addition of fluor-labelled peptide and anti-phosphotyrosine antibody, both provided by LJL Biosystems. Inhibition results are read on a Analyst (LJL) detector.

in vitro = in vitro ADME, human; conditions: 2 h
Procedure, shortened: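 HLM diluted to 5 mg/mL in 100 mM KPO4, preincubated 10 min at 37 °C with NADPH-regenerating system. Compound (5 µM final) incubated at 37 °C in triplicate, sampled at 0 and 2 h into ice-cold acetonitrile, then LC-MS analysis.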

in vivo = conditions: mouse, plasma, pH 2.3
[5] = test system: human umbilical vein endothelial cells (HUVEC); test: HUVEC proliferation assay (VEGF-stimulated, MTT); type: cell-based; conditions: Homo sapiens, HUVEC, Table 1
[6] = test system: VEGF dependent retinal vascular development; test: In vivo assay of retinal vascular development in neonatal rats; set-up: species or system rat; conditions: vehicle PEG/water 70:30
Procedure, shortened: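 Neonatal rats given compound by intravitreal injection, vehicle usually 50% PEG 400/50% 300 mM sucrose, with vehicle in contralateral eye. Retinas removed six days later, ADPase-stained and flat-mounted; stained vessel area quantified by imaging and expressed as percent regression versus vehicle eye.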

[7] = test system: VEGF dependent retinal neovascularization; test: Neonatal rat model of retinopathy of prematurity; type: in vivo; conditions: Model ROP, intravitreal, vehicle PEG/water 70:30
[8] = Table 3, read-out: CDK1* (% inhibition)
[9] = + albumin, read-out: HUVEC + albumin IC50
[10] = human liver microsomes, 5 µM test compound, 37 °C

Chain of human FGF-R1 (P11362 456-766 L457V/C488A/C584S): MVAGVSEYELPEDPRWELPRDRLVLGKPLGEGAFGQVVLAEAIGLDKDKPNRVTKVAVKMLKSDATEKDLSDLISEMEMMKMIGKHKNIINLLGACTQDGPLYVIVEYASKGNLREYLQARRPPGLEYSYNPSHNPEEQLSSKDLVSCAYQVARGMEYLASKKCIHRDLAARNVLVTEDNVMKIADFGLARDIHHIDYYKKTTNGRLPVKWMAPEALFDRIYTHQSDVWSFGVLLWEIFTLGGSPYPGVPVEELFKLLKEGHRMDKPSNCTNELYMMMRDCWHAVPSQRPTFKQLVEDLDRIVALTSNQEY

Q: What does the source list for `CC(=O)NC(C(=O)Nc1cccc(C(=O)c2ccc3c(/C=C/c4ccccc4)n[nH]c3c2)c1)c1ccccc1` (centres unmarked) [19(i), 6-[3-(2-acetamido-2-phenylacetamido)benzoyl]-3-E-styryl-1H-indazole]?
A: inhibition at 1 µM (human FGF-R1): 88%; inhibition at 1 µM (LCK tyrosine kinase): 36%; IC50 [1]: 3800 nM; Ki [2]: 0.72 nM; Ki [3]: 4.7 nM

Q: Which inhibition at 1 µM (human CHK1 (FL-CHK1); Table 2, compound concentration 1 µM, NI = no significant inhibition) does the source give for `CCc1cc(O)ccc1-c1ccc2c(-c3nc4ccccc4[nH]3)n[nH]c2c1` [24(e), 3-1H-Benzoimidazol-2-yl-6-(2-ethyl-4-hydroxyphenyl)-1H-indazole] here?
A: 75%

Q: What about the inhibition at 1 µM [3] of the same compound?
A: 52%

Q: For `Oc1ccc(-c2ccc3c(-c4nc5ccccc5[nH]4)n[nH]c3c2)c(O)c1` [24(f), 3-1H-Benzoimidazol-2-yl-6-(2,4-dihydroxyphenyl)-1H-indazole], which inhibition at 1 µM (human CHK1 (FL-CHK1)) is on record?
A: 97%

Q: What about the inhibition at 1 µM [3] of the same compound?
A: 89%

Q: Which “FLVK ** (% inhibition)” value [4] does the source give for `NNC(=O)c1ccccc1Sc1ccc2c(C=Cc3ccccn3)n[nH]c2c1` [35(il)] here?
A: 44%

Q: With `CCOc1cc(-c2ccc3c(/C=C/c4ccccc4)n[nH]c3c2)ccc1O` [Reference Example 27(h), 6-[3-ethoxy-4-hydroxyphenyl]-3-E-styryl-1H-indazole] as the compound, how does the inhibition at 1 µM (CDK1; [8]) read?
A: 84%

Q: Which results are given for `OCCOc1cc(-c2ccc3c(/C=C/c4ccccc4)n[nH]c3c2)ccc1O` [Reference Example 27(i), 6-[3-(2-hydroxyethoxy)-4-hydroxyphenyl]-3-E-styryl-1H-indazole]?
A: inhibition at 1 µM (CDK2/Cyclin A complex): 73%; inhibition at 1 µM (CDK1; [8]): 85%; inhibition at 1 µM (CDK4/Cyclin D3 complex): 92%

Q: For `Oc1cccc(-c2ccc3c(/C=C/c4ccccc4)n[nH]c3c2)c1` [Reference Example 28(a), 6-(3-hydrophenyl)-3-E-styryl-1H-indazole], which inhibition at 1 µM (CDK2/Cyclin A complex) is on record?
A: 75%

Q: What about the inhibition at 1 µM (CDK1; [8]) of the same compound?
A: 77%

Q: And the inhibition at 1 µM ([2]; read-out: FLVK* (% inhibition))?
A: 84%

Q: What about the inhibition at 1 µM (CDK4/Cyclin D3 complex) of the same compound?
A: 79%

Q: Which inhibition at 1 µM (CDK2/Cyclin A complex) does the source give for `Oc1ccc(-c2ccc3c(/C=C/c4ccccc4)n[nH]c3c2)cc1O` [Reference Example 28(d), 6-(3,4-dihydroxyphenyl)-3-E-styryl-1H-indazole] here?
A: 66%

Q: And the inhibition at 1 µM (CDK1; [8])?
A: 93%

Q: What about the inhibition at 1 µM (CDK4/Cyclin D3 complex) of the same compound?
A: 87%

Q: With `Clc1ccc(/C=C/c2n[nH]c3cc(-c4ccncc4)ccc23)cc1` [Reference Example 29(c)] as the compound, how does the inhibition at 1 µM (CDK1; read-out: CDK1* (% inhibition), Table 3) read?
A: 56%

Q: With `Cc1nc(/C=C/c2n[nH]c3cc(-c4ccncc4)ccc23)cs1` [Reference Example 29(j), 6-pyrid-4-yl-3-E-[2-(2-methylthiazol-4-yl)ethenyl]-1H-indazole] as the compound, how does the inhibition at 1 µM (CDK1; [8]) read?
A: 31%

Q: For `Fc1cc(F)cc(/C=C/c2n[nH]c3cc(-c4ccncc4)ccc23)c1` [Reference Example 29(m), 6-pyrid-4-yl-3-E-[2-(3,5-difluorophenyl)ethenyl]-1H-indazole], which inhibition at 1 µM (CDK1; [8]) is on record?
A: 54%

Q: For `FC(F)(F)Oc1cccc(/C=C/c2n[nH]c3cc(-c4ccncc4)ccc23)c1` [Reference Example 29(p), 6-pyrid-4-yl-3-E-[2-(3-trfluorometboxyphenyl)ethenyl]-1H-indazole], which inhibition at 1 µM (CDK1; [8]) is on record?
A: 6%

Q: With `CNC(=O)c1ccccc1Sc1ccc2c(/C=C/c3ccccn3)n[nH]c2c1` [Reference Example 33(a), 6-[2-(methylcarbamoyl)phenylsulfanyl]-3-E[2-(pyridin-2-yl)ethenyl]indazole] as the compound, how does the inhibition at 1 µM (human FAK (FAKcd409)) read?
A: 12%

Q: What about the “% remain (HLM, 2 h)” value (in vitro; human, microsomes, 5 µM) of the same compound?
A: 29%

Q: What about the AUC (in vivo; ip, 25 mg/kg) of the same compound?
A: 13800 ng·h/mL

Q: What about the AUC (in vivo; po, 50 mg/kg) of the same compound?
A: 19100 ng·h/mL

Q: And the inhibition at 0.05 µM [3]?
A: 42%

Q: And the inhibition at 1 µM (CDK4/Cyclin D3 complex)?
A: 7%

Q: With `O=C(NC1CC1)c1ccccc1Sc1ccc2c(/C=C/c3ccccn3)n[nH]c2c1` [Reference Example 33(e), 6-[2-(cyclopropylcarbamoyl)phenylsulfanyl]-3-E-[2-(pyridin-2-yl)ethenyl]-1H--1H-indazole] as the compound, how does the inhibition at 1 µM (human FGF-R1) read?
A: 68%

Q: What about the inhibition at 1 µM (LCK tyrosine kinase) of the same compound?
A: 2%

Q: And the IC50 [5, 9]?
A: 5 nM

Q: And the IC50 ([5]; read-out: HUVEC IC50)?
A: 0.46 nM

Q: And the “% remain (HLM, 2 h)” value (in vitro; [10])?
A: 54%

Q: And the “% Inhibition” value ([6]; Model P8, intravitreal, 5 mg/ml)?
A: 22%

Q: And the inhibition at 0.05 µM [3]?
A: 70%

Q: Which results are given for `O=C(Nc1ccc(N2CCNCC2)c(C(F)(F)F)c1)c1ccccc1Sc1ccc2c(/C=C/c3ccccc3)n[nH]c2c1` [Reference Example 38(b), 6-[2-((4-piperizin-1-yl-3-trifluoromethylphenyl)carbamoyl)phenylsulfanyl]-3-E-(2-styryl)-1H-indazole]?
A: IC50 ([5]; read-out: HUVEC IC50): 79 nM; inhibition at 0.05 µM [3]: 72%

Q: With `C/C=C/C(=O)Nc1cccc(C(=O)c2ccc3c(/C=C/c4ccccn4)n[nH]c3c2)c1` [Reference Example 41(c), 6-(3-crotonylamidobenzoyl)-3-E-[2-(pyridio-2-yl)ethenyl]-1H-indazole] as the compound, how does the inhibition at 1 µM (human FGF-R1) read?
A: 77%

Q: And the inhibition at 1 µM (LCK tyrosine kinase)?
A: 36%

Q: And the IC50 [5, 9]?
A: 5.3 nM

Q: And the IC50 ([5]; read-out: HUVEC IC50)?
A: 0.4 nM

Q: And the “% remain (HLM, 2 h)” value (in vitro; [10])?
A: 68%

Q: And the inhibition at 0.05 µM [3]?
A: 83%

Q: With `O=C(Cc1cc(F)cc(F)c1)Nc1cccc(C(=O)c2ccc3c(/C=C/c4ccccn4)n[nH]c3c2)c1` [Reference Example 41(f), 6-[3-(3,5-difluorophenylacetamido)benzoyl]-3-E-[2-(pyridin-2-yl)ethenyl]-1H-indazole] as the compound, how does the inhibition at 1 µM (human FGF-R1) read?
A: 92%

Q: And the inhibition at 1 µM (LCK tyrosine kinase)?
A: 65%

Q: What about the “% remain (HLM, 2 h)” value (in vitro; [10]) of the same compound?
A: 59%

Q: And the inhibition at 0.05 µM [3]?
A: 84%

Q: With `O=C(Nc1cccc(C(=O)c2ccc3c(/C=C/c4ccccn4)n[nH]c3c2)c1)c1ccccc1` [Reference Example 42(a), 6-(3-Benzamidobenzoyl)-3-E-[2-(pyridin-2-yl)ethenyl]-1H-indazole] as the compound, how does the IC50 [5, 9] read?
A: […]

Q: And the IC50 [1]?
A: 5500 nM

Q: What about the “% remain (HLM, 2 h)” value (in vitro; [10]) of the same compound?
A: 92%

Q: And the “% Inhibition” value ([6]; Model P6-P10, IP*)?
A: 61%

Q: What about the “% Inhibition” value ([6]; Model P9, intravitreal, 10 mg/ml) of the same compound?
A: 55%

Q: And the “% Inhibition” value ([7]; 1 mg/ml)?
A: 1%

Q: And the “Initial Evaluation” value ([7]; 1 mg/ml)?
A: + (one plus being detectable regression judged to be approximately 25 percent or less)

Q: And the “% Inhibition” value ([7]; 10 mg/ml)?
A: 23%

Q: And the inhibition at 0.05 µM [3]?
A: 79%
